Twelve compounds from paper PMC6886544 can be followed below.

Data set [1] relates to H358 cells (KRAS mutant). The experiment in a line: CellTiter-Glo viability assay, H358.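 Also: viable cell number estimated from ATP-dependent luminescence following exposure to serially diluted inhibitor.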 The following applies: Homo sapiens, read-out: KRAS CTG EC50 H358. The class given is cell-based. In general terms: Cellular ATP, detected with luciferase, serves as a proxy for viable cell number.
For data set [2], the system named is A549 cells (KRAS mutant). Put plainly: CellTiter-Glo viability assay, A549. The following applies: Homo sapiens, A549, 96 h, read-out: KRAS CTG EC50 A549.
Description: (§7) A431, HCC827, H1975, A549 and H358 cells were obtained from the American Type Culture Collection (ATCC). A431 cells were cultured in DMEM high glucose media (Life Technologies, Germany), and HCC827, H1975, A549 as well as H358 cells were cultured in RPMI media (Life Technologies, Germany), both containing L-Glutamine and were supplemented with 10% FBS (GE Healthcare, Austria) and 1% PenStrep (Life Technologies, Germany) in a humidified incubator at 37 °C and 5% CO2.
(§8) Cells were seeded at cell numbers that assure linearity and optimal signal intensity (150-300 cells/well, 25 µL) and cultured for 24 hours in serum- and antibiotics-containing media in humidified chambers at 37 °C / 5% CO2. The cells were then treated with EGFR inhibitors in serial
(§9) Afterwards viability studies were carried out using CellTiter-Glo Assay (Promega, USA) that is a homogeneous method of determining the number of viable cells in culture. It is based on quantification of ATP, indicating the presence of metabolically active cells. For these studies, CellTiter-Glo reagent was prepared according to the instructions of the kit and diluted 1:1 with the complete growth medium suitable for the corresponding cell line. Thereon, reagent and assay plates were equilibrated at room temperature for 20 min. Equal volumes of the reagent were added to the volume of culture medium present in each well (25 µL). The plates were mixed for 2 minutes on an orbital shaker to induce cell lysis. The microplates were then incubated at room temperature for 20 minutes for stabilization of the luminescent signal. Following incubation the luminescence was recorded on an EnVision microplate reader (Perkin Elmer) using 500 ms integration time. The data was then analyzed using the Quattro Research Software Suite for EC50-determination. As quality control the Z’-factor was calculated from 16 positive and negative control values. Only assay results showing a Z’-factor ≥0.5 were used for further analysis. All data points were measured in duplicates for each plate and were replicated in at least two plates.
Data set [3] can be described thus: Microsomal stability (phase I), mouse. The following applies: mouse liver microsomes, up to 60 minutes, 37 °C. The class given is in vitro ADME. On the procedure:
(§1) Microsomal stability (phase I) assay.
(§2) Metabolic stability under oxidative conditions was measured in liver microsomes from different
(§3) time up to 50 minutes (HLM) or 60 minutes (MLM) at 37 °C. Based on the compound half-life t1/2,
(§4) the in vitro intrinsic clearance CLint was calculated. […]
On the technique in general: Liver microsomes are a subcellular fraction often used to study metabolism.

Data set [4] deals with EGFR-wt (Homo sapiens, UniProt P00533). Put plainly: HTRF KinEASE-TK activity-based assay, EGFR-wt. (In general: TR-FRET usually uses a lanthanide donor and a delayed reading to cut background.)
Chain of EGFR-wt (P00533 25-1210): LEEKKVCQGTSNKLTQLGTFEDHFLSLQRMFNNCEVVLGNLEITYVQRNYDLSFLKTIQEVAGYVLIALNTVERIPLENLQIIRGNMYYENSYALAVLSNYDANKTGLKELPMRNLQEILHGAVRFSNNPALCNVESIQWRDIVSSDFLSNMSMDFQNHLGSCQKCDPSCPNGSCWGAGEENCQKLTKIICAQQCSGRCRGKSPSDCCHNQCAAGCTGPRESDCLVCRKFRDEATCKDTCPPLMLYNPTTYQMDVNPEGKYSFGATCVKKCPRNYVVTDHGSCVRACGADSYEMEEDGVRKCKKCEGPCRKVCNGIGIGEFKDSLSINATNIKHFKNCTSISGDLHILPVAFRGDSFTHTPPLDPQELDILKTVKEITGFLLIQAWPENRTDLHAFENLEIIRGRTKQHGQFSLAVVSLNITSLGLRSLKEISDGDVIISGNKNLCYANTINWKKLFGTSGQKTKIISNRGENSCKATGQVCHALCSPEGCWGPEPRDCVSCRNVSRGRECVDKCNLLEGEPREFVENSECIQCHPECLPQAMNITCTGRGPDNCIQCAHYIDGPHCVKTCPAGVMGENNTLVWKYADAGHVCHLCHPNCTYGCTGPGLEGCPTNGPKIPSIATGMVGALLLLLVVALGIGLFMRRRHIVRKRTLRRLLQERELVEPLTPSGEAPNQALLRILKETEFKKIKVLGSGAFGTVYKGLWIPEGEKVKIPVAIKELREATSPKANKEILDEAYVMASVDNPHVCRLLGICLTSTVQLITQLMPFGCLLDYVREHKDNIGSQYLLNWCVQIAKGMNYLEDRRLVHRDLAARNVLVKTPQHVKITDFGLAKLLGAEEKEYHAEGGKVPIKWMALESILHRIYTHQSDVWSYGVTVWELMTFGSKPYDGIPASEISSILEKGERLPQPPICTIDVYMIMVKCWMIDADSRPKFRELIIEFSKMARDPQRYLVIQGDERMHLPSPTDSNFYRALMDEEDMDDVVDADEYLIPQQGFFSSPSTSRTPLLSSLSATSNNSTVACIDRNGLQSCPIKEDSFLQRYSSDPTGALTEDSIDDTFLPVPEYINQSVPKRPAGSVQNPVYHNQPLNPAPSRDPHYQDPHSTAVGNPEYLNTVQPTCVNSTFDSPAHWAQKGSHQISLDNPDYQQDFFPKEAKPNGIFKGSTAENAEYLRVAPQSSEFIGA
Data set [5] deals with EGFR-L858R/T790M (Homo sapiens, UniProt P00533, L858R/T790M). Put plainly: HTRF KinEASE-TK activity-based assay, EGFR-L858R/T790M. To be noted: EGFR HTRF IC50 L858R/T790M, ATP at Km (4 µM), 30 min preincubation; mean ± SD of three independent measurements in duplicates.
Chain of EGFR-L858R/T790M (P00533 25-1210 T790M/L858R): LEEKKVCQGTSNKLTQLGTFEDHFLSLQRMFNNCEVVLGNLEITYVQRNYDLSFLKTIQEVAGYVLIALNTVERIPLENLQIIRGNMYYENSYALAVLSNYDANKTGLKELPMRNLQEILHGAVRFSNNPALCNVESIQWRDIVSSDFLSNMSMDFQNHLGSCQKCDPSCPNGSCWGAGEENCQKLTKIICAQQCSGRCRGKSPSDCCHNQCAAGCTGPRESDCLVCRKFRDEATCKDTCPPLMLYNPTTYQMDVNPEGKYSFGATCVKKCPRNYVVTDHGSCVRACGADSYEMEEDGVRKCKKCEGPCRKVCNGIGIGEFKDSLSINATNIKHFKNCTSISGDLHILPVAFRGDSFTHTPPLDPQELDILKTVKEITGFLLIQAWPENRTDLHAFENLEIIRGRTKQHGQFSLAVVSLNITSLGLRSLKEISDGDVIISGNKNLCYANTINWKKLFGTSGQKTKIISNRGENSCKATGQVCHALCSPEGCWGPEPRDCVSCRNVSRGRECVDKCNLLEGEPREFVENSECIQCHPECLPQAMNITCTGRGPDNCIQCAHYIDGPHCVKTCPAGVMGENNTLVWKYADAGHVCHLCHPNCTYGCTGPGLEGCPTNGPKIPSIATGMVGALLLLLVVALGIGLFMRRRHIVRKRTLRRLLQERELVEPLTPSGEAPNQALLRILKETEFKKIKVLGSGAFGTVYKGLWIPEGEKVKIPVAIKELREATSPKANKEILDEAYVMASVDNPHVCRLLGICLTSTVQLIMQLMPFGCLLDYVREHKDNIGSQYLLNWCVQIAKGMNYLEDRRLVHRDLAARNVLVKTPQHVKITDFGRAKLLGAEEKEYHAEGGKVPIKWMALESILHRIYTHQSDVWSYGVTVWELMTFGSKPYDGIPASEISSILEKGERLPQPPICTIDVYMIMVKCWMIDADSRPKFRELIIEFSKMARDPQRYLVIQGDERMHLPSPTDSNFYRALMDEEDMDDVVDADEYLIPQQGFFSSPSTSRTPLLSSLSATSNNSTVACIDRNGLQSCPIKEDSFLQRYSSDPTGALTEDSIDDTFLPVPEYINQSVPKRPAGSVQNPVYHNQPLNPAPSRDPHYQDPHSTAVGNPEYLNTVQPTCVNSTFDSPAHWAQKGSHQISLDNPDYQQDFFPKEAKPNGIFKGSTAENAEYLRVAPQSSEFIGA
Data set [6] has as its system HCC827 cells (EGFR-delE746_A750). Put plainly: CellTiter-Glo viability assay, HCC827.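 Also: luminescence from ATP content as a measure of metabolically active cells, in RPMI with 10% FBS, compound added as serial dilutions after 24 h of preculture.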 To be noted: Homo sapiens; HCC827, 96 hours, CellTiter-Glo; read-out: EGFR CTG EC50 HCC827. The class given is cell-based.
Description: as §7, §8, §9
Data set [7] relates to A431 cells (EGFR wild type). Put plainly: CellTiter-Glo viability assay, A431. To be noted: Homo sapiens, A-431, 96 h, read-out: EGFR CTG EC50 A431, A431, 96 hours, CellTiter-Glo.
Description: as §7, §8, §9
For data set [8], the target named is EGFR-L858R (Homo sapiens, UniProt P00533, L858R). Put plainly: HTRF KinEASE-TK activity-based assay, EGFR-L858R.
Chain of EGFR-L858R (P00533 25-1210 L858R): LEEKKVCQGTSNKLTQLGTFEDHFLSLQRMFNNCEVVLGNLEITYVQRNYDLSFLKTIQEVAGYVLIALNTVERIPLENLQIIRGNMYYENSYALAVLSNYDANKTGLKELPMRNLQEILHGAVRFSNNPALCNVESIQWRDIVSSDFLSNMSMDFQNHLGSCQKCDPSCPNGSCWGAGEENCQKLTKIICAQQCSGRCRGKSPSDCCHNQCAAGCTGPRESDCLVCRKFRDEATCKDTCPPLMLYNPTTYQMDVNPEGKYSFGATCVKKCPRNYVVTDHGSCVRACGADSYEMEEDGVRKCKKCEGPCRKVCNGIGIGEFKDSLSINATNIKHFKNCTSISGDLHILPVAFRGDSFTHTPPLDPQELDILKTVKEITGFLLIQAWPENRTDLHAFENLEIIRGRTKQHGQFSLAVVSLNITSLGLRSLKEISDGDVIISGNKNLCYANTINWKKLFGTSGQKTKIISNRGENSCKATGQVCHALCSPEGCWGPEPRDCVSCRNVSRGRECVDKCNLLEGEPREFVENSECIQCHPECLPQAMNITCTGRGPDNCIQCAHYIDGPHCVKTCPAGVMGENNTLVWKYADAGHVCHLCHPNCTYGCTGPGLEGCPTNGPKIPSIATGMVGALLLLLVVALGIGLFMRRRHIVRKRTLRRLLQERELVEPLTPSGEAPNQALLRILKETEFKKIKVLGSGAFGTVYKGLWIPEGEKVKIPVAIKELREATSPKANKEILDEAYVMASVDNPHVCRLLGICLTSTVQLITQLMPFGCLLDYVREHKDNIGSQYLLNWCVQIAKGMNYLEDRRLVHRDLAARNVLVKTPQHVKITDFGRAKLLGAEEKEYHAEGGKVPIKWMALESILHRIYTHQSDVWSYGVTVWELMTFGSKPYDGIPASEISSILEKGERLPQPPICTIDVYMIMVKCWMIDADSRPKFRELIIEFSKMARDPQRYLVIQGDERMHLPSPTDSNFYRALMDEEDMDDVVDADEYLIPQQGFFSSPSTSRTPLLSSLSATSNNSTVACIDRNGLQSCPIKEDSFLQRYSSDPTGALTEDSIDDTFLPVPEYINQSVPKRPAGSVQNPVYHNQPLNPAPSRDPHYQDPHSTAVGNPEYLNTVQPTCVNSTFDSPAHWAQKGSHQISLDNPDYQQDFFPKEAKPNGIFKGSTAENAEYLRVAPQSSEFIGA
Data set [9] has as its system H1975 cells (EGFR-L858R/T790M). Put plainly: CellTiter-Glo viability assay, H1975.
Data set [10] is described as follows: Caco-2 assay. The class given is in vitro ADME. The following applies: human, Caco-2, 5 μM, pH 7.4, 2 hours. On the procedure: For Caco-2 cell assay, a 10 mM DMSO stock of the compound was diluted to a final concentration of 5 μM in HBSS buffer pH 7.4 and incubated for 2 hours at 37 °C and 5% CO2 on a monolayer of Caco-2 cells (ATCC) that had been grown on a transwell membrane (Millipore, Schwalbach, Germany) for 21 days. The compound concentration was measured in the receiver as well as the donor well. Apparent permeability (Papp) from either the apical to basolateral direction or vice versa […]
is the donor drug concentration at t = 0, and dQ/dt is the amount of drug transported within the given time period of 2 hours. […]

Data set [11] can be described thus: Plasma stability, mouse. The class given is in vitro ADME. The following applies: 5 µM, 1 h, 37 °C.
A short description of data set [12]: Microsomal stability (phase I), human. To be noted: human liver microsomes, up to 50 minutes, 37 °C. Format: in vitro ADME. On the procedure: as §1, §2, §3, §4
A short description of data set [13]: Plasma protein binding, mouse. The following applies: equilibrium dialysis, 37 °C. Format: in vitro ADME. On the procedure:
(§5) Assessment of plasma protein binding was measured by equilibrium dialysis by incubating plasma
(§6) based determination of final compound concentrations. […]

The nature of data set [14]: Plasma stability, human. Format: in vitro ADME. To be noted: 5 µM, 1 h, 37 °C.
Data set [15] can be described thus: Plasma protein binding, human. The class given is in vitro ADME. The following applies: equilibrium dialysis, 37 °C. On the procedure: as §5, §6
Where [16] appears, read: NCI-H358, H358, 96 hours, CellTiter-Glo.
[17] abbreviates: EGFR HTRF IC50 wt, ATP at Km (9.5 µM), 30 min preincubation, mean ± SD of three independent measurements in duplicates.
[18] abbreviates: Homo sapiens, NCI-H1975, 96 h, read-out: EGFR CTG EC50 H1975, H1975, 96 hours, CellTiter-Glo.
[19] abbreviates: read-out: EGFR CTG EC50 H1975, H1975, 96 hours, CellTiter-Glo.

The structures appear in SMILES notation. Where “and” joins values, the source holds several entries; their conditions need not be identical. Identical values can stand only once. Like-named read-outs stand apart in the source and are kept apart here.

On to `CN(C)C/C=C/C(=O)Nc1cc2c(Nc3ccc(F)c(Cl)c3)ncnc2cc1O[C@H]1CCOC1` [Afatinib, afatinib, reference compound], for which the EC50 in data set [1] (NCI-H358, 96 h) amounted to 1330 ± 515 nM; in data set [2] it was 1490 ± 430 nM. This compound showed a microsomal CLint at 3 µM in data set [3] of 6 µL/min/mg.

Turning to `C=CC(=O)Nc1cccc(-c2c(-c3ccccc3)[nH]c3ncnc(OC)c23)c1` [Compound 1a], the EC50 in data set [1] (setting [16]) was more than 30000 nM; in [2], more than 30000 nM; in data set [6], 827 ± 234 nM; in data set [7] it was more than 30000 nM. In addition, the IC50 was 1200 ± 87 nM in [4] (setting [17]); approximately 1000 nM in [4] (IC50 EGFR-wt, rounded value); 176 ± 33 nM in data set [5]; 133 ± 57 nM in [8]. Besides, the microsomal CLint at 3 µM in data set [3] turned out to be 156 µL/min/mg.

In the case of `C=CC(=O)Nc1cccc(-c2c(-c3ccc(C)cc3)[nH]c3ncnc(OC)c23)c1` [Compound 10a], the EC50 in data set [1] (setting [16]) was 14200 ± 678 nM; in data set [2], 10200 ± 504 nM; in data set [6] it was 151 ± 10 nM; in [7], 9860 ± 4250 nM; in data set [9] (setting [18]) it was 2040 ± 88 nM; in [9] (Homo sapiens, NCI-H1975, read-out: EC50 / potency in H1975 cells, H1975, rounded value in running text) it was approximately 2000 nM. Also, the IC50 is 200 ± 148 nM in [4] (setting [17]); < 200 nM and 175 nM in [5]; 93 ± 54 nM in data set [8]. In data set [3], this compound yielded a microsomal CLint at 3 µM of 118 µL/min/mg.

Turning to `COc1ncnc2[nH]c(-c3ccc(C)cc3)c(-c3cccc(NC(=O)C=CCN(C)C)c3)c12` [Compound 10b], the EC50 in data set [1] (setting [16]) was 10700 ± 3520 nM; in [2], 7060 ± 3230 nM; in data set [6] it was 282 ± 29 nM; in data set [7] it was 2430 ± 991 nM; in data set [9] (setting [18]), 980 ± 136 nM. For the same compound, the IC50 in [4] (setting [17]) stood at 60 ± 18 nM; in data set [5] it was 26 ± 8 nM; in [8] it was 34 ± 11 nM. The same compound showed a microsomal CLint at 3 µM in data set [3] of 26 µL/min/mg.

As to `C=CC(=O)Nc1cccc(-c2c(-c3ccc(N4CCN(C)CC4)cc3)[nH]c3ncnc(OCCCC)c23)c1` [Compound 19d], the EC50 was 1640 ± 813 nM in data set [1] (setting [16]); 1130 ± 176 nM in data set [2]; less than 14 nM in [6]; 1530 ± 273 nM in [7]; 64 ± 8 nM in data set [9] (setting [18]). The IC50 in data set [4] (setting [17]), in data set [5] and in data set [8] was less than 0.1 nM throughout. The compound further yielded a microsomal CLint at 3 µM in data set [3] of 50 µL/min/mg.

In the case of `C=CC(=O)Nc1cccc(-c2c(-c3ccc(N4CCN(C)CC4)cc3)[nH]c3ncnc(OC4CCCC4)c23)c1` [Compound 19f], the results for the half-maximal inhibitory concentration (IC50) in [4] (setting [17]), in data set [5] and in data set [8] were 0.2 nM, less than 0.1 nM and less than 0.1 nM, respectively. The microsomal CLint at 3 µM in data set [3] was found to be 128 µL/min/mg. In addition, the EC50 in [7] is 1790 ± 744 nM; in data set [9] (setting [18]), 107 ± 45 nM.

Regarding `C=CC(=O)Nc1cccc(-c2c(-c3ccc(N4CCN(C)CC4)cc3)[nH]c3ncnc(OC(C)C)c23)c1` [Compound 19g], the EC50 is 2700 ± 758 nM in data set [1] (setting [16]); 1800 ± 131 nM in data set [2]; less than 14 nM in [6]; 334 ± 50 nM in [7]; 38 ± 19 nM in [9] (setting [18]). Besides, the IC50 in data set [4] (setting [17]) was 0.1 nM; in [5] it was 0.1 nM; in data set [8], less than 0.1 nM. The compound further displayed a microsomal CLint at 3 µM in [3] of 46 µL/min/mg.

Consider `C=CC(=O)Nc1cc(-c2c(-c3ccc(N4CCN(C)CC4)cc3)[nH]c3ncnc(OC)c23)ccc1OC(C)COC` (stereo not shown) [Compound 20b], for which the EC50 was 4470 nM in [1] (setting [16]); 5850 nM in [2]; less than 14 nM in data set [6]; 1320 ± 777 nM in data set [7]; approximately 300 nM in data set [9] (setting [18]); 375 ± 252 nM in data set [9] (setting [19]). Moreover, the half-inhibitory concentration (IC50) was 0.2 ± 0.2 nM in [4] (setting [17]), 0.1 ± 0.1 nM in [5] and less than 0.1 nM in data set [8]. In data set [3], this compound yielded a microsomal CLint at 3 µM of 8 µL/min/mg.

Regarding `C=CC(=O)Nc1cccc(-c2c(-c3ccc(N4CCN(C)CC4)cc3)[nH]c3ncn(CC)c(=O)c23)c1` [Compound 29b], the EC50 in data set [1] (setting [16]) is 3470 ± 2010 nM; in [2] it was 4300 ± 1250 nM; in data set [6] it was 15 ± 1 nM; in [7] it was 739 ± 287 nM; in data set [9] (setting [18]) it was less than 200 nM; in data set [9] (setting [19]) it was 144 ± 41 nM. Further, the figures for the half-inhibitory concentration (IC50) in data set [4] (setting [17]), in [5] and in data set [8] were 0.4 ± 0.2 nM, 0.5 nM and 0.2 ± 0.1 nM, respectively. For the same compound, the microsomal CLint at 3 µM in [3] came to 4 µL/min/mg.

For the compound `C=CC(=O)Nc1cccc(-c2c(-c3ccc(N4CCN(C)CC4)cc3)[nH]c3ncn(C4CCCC4)c(=O)c23)c1` [Compound 29i], the EC50 was 1940 ± 45 nM in data set [1] (setting [16]); 2130 ± 990 nM in data set [2]; less than 14 nM in data set [6]; 502 ± 166 nM in [7]; 263 ± 46 nM in [9] (setting [18]). In addition, the IC50 in [4] (setting [17]) was 0.1 nM; in data set [5] it was > 1 nM and 1.2 nM; in data set [8], less than 0.1 nM. In [3], this compound displayed a microsomal CLint at 3 µM of 84 µL/min/mg.

As to `C=CC(=O)Nc1cccc(-c2c(-c3ccc(N4CCN(C)CC4)cc3)[nH]c3ncn(C4CCCCC4)c(=O)c23)c1` [Compound 29j], the EC50 in data set [1] (setting [16]) is 6270 ± 1270 nM; in data set [2], 6050 ± 4600 nM; in data set [6] it was less than 14 nM; in [7] it was 1120 ± 656 nM; in [9] (setting [18]), 77 ± 15 nM. Moreover, the figures for the half-maximal inhibitory concentration (IC50) in data set [4] (setting [17]), in data set [5] and in data set [8] were 0.4 ± 0.1 nM, 0.4 ± 0.1 nM and 0.2 ± 0.1 nM, respectively. Further, the microsomal CLint at 3 µM in data set [3] was 30 µL/min/mg.

With `C=CC(=O)Nc1cccc(Oc2nc(Nc3ccc(N4CCN(C)CC4)cc3OC)ncc2Cl)c1` [WZ4002, reference compound], the Papp A→B at 2 h, 5 μM in [10] (apical to basolateral, read-out: Caco-2: Papp AB) was 4.9 ×10⁻⁶ cm/s. For the same compound, the Papp B→A at 2 h, 5 μM in data set [10] (basolateral to apical, read-out: Caco-2: Papp BA) came to 11.7 ×10⁻⁶ cm/s. The EC50 worked out at 4390 ± 512 nM in [1] (setting [16]); 4000 ± 545 nM in data set [2]; 20 ± 6 nM in data set [6]; 2140 ± 439 nM in [7]; 97 ± 37 nM in [9] (setting [18]). In addition, the Plasma stability worked out at 78 %remain in data set [11] and 86 %remain in data set [14]. Moreover, the microsomal CLint at 3 µM stood at 11 µL/min/mg in [12] and 66 µL/min/mg in [3]. Further, the fraction unbound at 6 h, 5 µM is 0.019 in [13] and 0.008 in data set [15].

As a reminder, the microsomal CLint is the capacity of the preparation to metabolise the compound, expressed as a volume cleared per time. The IC50 is the concentration at which inhibition is half-maximal. Read a low IC50 as higher potency. The fraction unbound is the share of the substance not bound to proteins or other matrix. A low value points to extensive binding.
